The values that follow come from patent US7829589B2, “Sulfonamide compounds and uses thereof” (Elixir Pharmaceuticals, Inc., priority 2005, dated 2010).

Molecules are shown by their SMILES. pKi: −log10 of the molar value.

In the experiment the target is GHS-R (Homo sapiens, UniProt Q92847). The experiment can be described thus: GHS-R antagonist activity (Ki) in a cell based assay. In a few lines: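 Transfected COS-7 cells were labelled 24 h with [^3H]-myo-inositol and preincubated 30 min at 37 °C in HEPES buffer pH 7.4 with 10 mM LiCl, optionally with 1 U/ml adenosine deaminase. Compound was applied for 45 min at 37 °C. [^3H]-inositol phosphates were extracted with perchloric acid and isolated by anion-exchange resin.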
Sequence of GHS-R (Q92847 whole entry, species assumed): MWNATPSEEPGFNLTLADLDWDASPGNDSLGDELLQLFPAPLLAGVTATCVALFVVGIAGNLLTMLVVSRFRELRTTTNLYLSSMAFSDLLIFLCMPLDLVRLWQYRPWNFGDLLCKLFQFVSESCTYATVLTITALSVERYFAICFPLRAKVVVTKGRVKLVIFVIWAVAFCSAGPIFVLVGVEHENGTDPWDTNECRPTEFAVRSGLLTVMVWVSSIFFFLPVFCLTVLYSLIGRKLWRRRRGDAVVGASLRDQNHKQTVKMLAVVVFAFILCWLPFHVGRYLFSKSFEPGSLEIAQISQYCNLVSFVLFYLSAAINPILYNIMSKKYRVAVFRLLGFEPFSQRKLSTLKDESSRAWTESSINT
Usually pKi stands for the Ki on a negative log10 scale, so that one unit is a factor of ten. On to `CCN(CC)CCCS(=O)(=O)N[C@H](CCc1ccccc1)c1nc(Cc2ccccc2F)no1` [Compound 72, 3-Diethylamino-propane-1-sulfonic acid {(R)-1-[3-(2-fluoro-benzyl)-[1,2,4]oxadiazol-5-yl]-3-phenyl-propyl}-amide], for which the pKi was > 7.00.

For `CCN(CC)CCCS(=O)(=O)N[C@H](CCc1ccccc1)c1nc(Cc2c(Cl)cccc2Cl)no1` [Compound 73, 3-Diethylamino-propane-1-sulfonic acid {(R)-1-[3-(2,6-dichloro-benzyl)-[1,2,4]oxadiazol-5-yl]-3-phenyl-propyl}-amide], the pKi is > 7.00.

As to `CCN(CC)CCCS(=O)(=O)N[C@H](CCc1ccccc1)c1nc(Cc2cccc(Br)c2)no1` [Compound 74, 3-Diethylamino-propane-1-sulfonic acid {(R)-1-[3-(3-bromo-benzyl)-[1,2,4]oxadiazol-5-yl]-3-phenyl-propyl}-amide], the pKi is > 7.00.

For the compound `CCN(CC)CCCS(=O)(=O)N[C@H](CCc1ccccc1)c1nc(Cc2ccccc2Br)no1` [Compound 75, 3-Diethylamino-propane-1-sulfonic acid {(R)-1-[3-(2-bromo-benzyl)-[1,2,4]oxadiazol-5-yl]-3-phenyl-propyl}-amide], the negative-log Ki (pKi) is > 7.00.

As to `CCN(CC)CCS(=O)(=O)N[C@H](CCc1ccccc1)c1nc(-c2cccc(Br)c2)no1` [Compound 76, 2-Diethylamino-ethanesulfonic acid {(R)-1-[3-(3-bromo-phenyl)-[1,2,4]oxadiazol-5-yl]-3-phenyl-propyl}-amide], the pKi was ≤ 6.00.

Turning to `CCN(CC)CCS(=O)(=O)N[C@H](CCc1ccccc1)c1nc(-c2cnccc2C)no1` [Compound 77, 2-Diethylamino-ethanesulfonic acid {(R)-1-[3-(4-methyl-pyridin-3-yl)-[1,2,4]oxadiazol-5-yl]-3-phenyl-propyl}-amide], the pKi was ≤ 6.00.

Consider `CCN(CC)CCS(=O)(=O)N[C@H](CCc1ccccc1)c1nc(CCOC)no1` [Compound 78, 2-Diethylamino-ethanesulfonic acid {(R)-1-[3-(2-methoxy-ethyl)-[1,2,4]oxadiazol-5-yl]-3-phenyl-propyl}-amide], for which the pKi was 6.00 to 6.30.

In turn, `CCN(CC)CCS(=O)(=O)N[C@H](CCc1ccccc1)c1nc(-c2ccc(Br)cc2)no1` [Compound 79, 2-Diethylamino-ethanesulfonic acid {(R)-1-[3-(4-bromo-phenyl)-[1,2,4]oxadiazol-5-yl]-3-phenyl-propyl}-amide] showed a pKi of 6.30 to 7.00.

In turn, `CCN(CC)CCCS(=O)(=O)N[C@H](CCc1ccccc1)c1nc(-c2ccc(OC)c(OC)c2)n[nH]1` [Compound 80, 3-Diethylamino-propane-1-sulfonic acid {(R)-1-[5-(3,4-dimethoxy-phenyl)-2H-[1,2,4]triazol-3-yl]-3-phenyl-propyl}-amide] gave a negative logarithm of the Ki (pKi) of 6.30 to 7.00.

In turn, `CCN(CC)CCS(=O)(=O)N[C@H](CCc1ccccc1)c1nc(Cc2ccc3c(c2)OCO3)no1` [Compound 81, 2-Diethylamino-ethanesulfonic acid [(R)-1-(3-benzo[1,3]dioxol-5-ylmethyl-[1,2,4]oxadiazol-5-yl)-3-phenyl-propyl]-amide] gave a pKi of 6.30 to 7.00.

With `CCN(CC)CCS(=O)(=O)N[C@H](CCc1ccccc1)c1nc(Cc2cccc(F)c2)no1` [Compound 82, 2-Diethylamino-ethanesulfonic acid {(R)-1-[3-(3-fluoro-benzyl)-[1,2,4]oxadiazol-5-yl]-3-phenyl-propyl}-amide], the pKi was > 7.00.

`CCN(CC)CCCS(=O)(=O)N[C@H](CCc1ccccc1)c1nc(-c2cnccc2C)no1` [Compound 83, 3-Diethylamino-propane-1-sulfonic acid {(R)-1-[3-(4-methyl-pyridin-3-yl)-[1,2,4]oxadiazol-5-yl]-3-phenyl-propyl}-amide] had a pKi of 6.30 to 7.00.

Consider `CCN(CC)CCS(=O)(=O)N[C@H](CCc1ccccc1)c1nc(Cc2ccc(Br)cc2)no1` [Compound 84, 2-Diethylamino-ethanesulfonic acid {(R)-1-[3-(4-bromo-benzyl)-[1,2,4]oxadiazol-5-yl]-3-phenyl-propyl}-amide], for which the negative-log Ki (pKi) was 6.30 to 7.00.

Take `CCN(CC)CCS(=O)(=O)N[C@H](CCc1ccccc1)c1nc(-c2ccc(Br)cc2C)no1` [Compound 85, 2-Diethylamino-ethanesulfonic acid {(R)-1-[3-(4-bromo-2-methyl-phenyl)-[1,2,4]oxadiazol-5-yl]-3-phenyl-propyl}-amide]: the pKi is ≤ 6.00.

The compound `CCN(CC)CCS(=O)(=O)N[C@H](CCc1ccccc1)c1nc(-c2ccc(C)cc2)no1` [Compound 86, 2-Diethylamino-ethanesulfonic acid [(R)-3-phenyl-1-(3-p-tolyl-[1,2,4]oxadiazol-5-yl)-propyl]-amide] gave a pKi of 6.30 to 7.00.

Take `CCN(CC)CCS(=O)(=O)N[C@H](CCc1ccccc1)c1nc(Cc2ccccc2C)no1` [Compound 87, 2-Diethylamino-ethanesulfonic acid {(R)-1-[3-(2-methyl-benzyl)-[1,2,4]oxadiazol-5-yl]-3-phenyl-propyl}-amide]: the pKi is 6.30 to 7.00.

In the case of `CCN(CC)CCS(=O)(=O)N[C@H](CCc1ccccc1)c1nc(-c2ccc(OC)cc2)no1` [Compound 88, 2-Diethylamino-ethanesulfonic acid {(R)-1-[3-(4-methoxy-phenyl)-[1,2,4]oxadiazol-5-yl]-3-phenyl-propyl}-amide], the pKi is ≤ 6.00.

As to `CCN(CC)CCS(=O)(=O)N[C@H](CCc1ccccc1)c1nc(-c2ccc(F)cc2)no1` [Compound 89, 2-Diethylamino-ethanesulfonic acid {(R)-1-[3-(4-fluoro-phenyl)-[1,2,4]oxadiazol-5-yl]-3-phenyl-propyl}-amide], the pKi was > 7.00.

Regarding `CCN(CC)CCS(=O)(=O)N[C@H](CCc1ccccc1)c1nc(Cc2c(Cl)cccc2Cl)no1` [Compound 90, 2-Diethylamino-ethanesulfonic acid {(R)-1-[3-(2,6-dichloro-benzyl)-[1,2,4]oxadiazol-5-yl]-3-phenyl-propyl}-amide], the pKi was > 7.00.

`CCN(CC)CCS(=O)(=O)N[C@H](CCc1ccccc1)c1nc(Cc2ccccc2F)no1` [Compound 91, 2-Diethylamino-ethanesulfonic acid {(R)-1-[3-(2-fluoro-benzyl)-[1,2,4]oxadiazol-5-yl]-3-phenyl-propyl}-amide] had a pKi of 6.30 to 7.00.

Turning to `CCN(CC)CCS(=O)(=O)N[C@H](CCc1ccccc1)c1nc(Cc2cccc(Br)c2)no1` [Compound 92, 2-Diethylamino-ethanesulfonic acid {(R)-1-[3-(3-bromo-benzyl)-[1,2,4]oxadiazol-5-yl]-3-phenyl-propyl}-amide], the pKi was > 7.00.

For `CCN(CC)CCS(=O)(=O)N[C@H](CCc1ccccc1)c1nc(Cc2ccccc2Br)no1` [Compound 93, 2-Diethylamino-ethanesulfonic acid {(R)-1-[3-(2-bromo-benzyl)-[1,2,4]oxadiazol-5-yl]-3-phenyl-propyl}-amide], the pKi is > 7.00.

Turning to `CCN(CC)CCCS(=O)(=O)N[C@@H](Cc1ccccc1)c1nc(-c2ccc(OC)cc2)n[nH]1` [Compound 95, 3-Diethylamino-propane-1-sulfonic acid {(S)-1-[5-(4-methoxy-phenyl)-2H-[1,2,4]triazol-3-yl]-2-phenyl-ethyl}-amide], the pKi is > 7.00.
